The structures appear in SMILES notation.

human STING WT (6His-tagged STING protein), sequence (Q86WV6 whole entry): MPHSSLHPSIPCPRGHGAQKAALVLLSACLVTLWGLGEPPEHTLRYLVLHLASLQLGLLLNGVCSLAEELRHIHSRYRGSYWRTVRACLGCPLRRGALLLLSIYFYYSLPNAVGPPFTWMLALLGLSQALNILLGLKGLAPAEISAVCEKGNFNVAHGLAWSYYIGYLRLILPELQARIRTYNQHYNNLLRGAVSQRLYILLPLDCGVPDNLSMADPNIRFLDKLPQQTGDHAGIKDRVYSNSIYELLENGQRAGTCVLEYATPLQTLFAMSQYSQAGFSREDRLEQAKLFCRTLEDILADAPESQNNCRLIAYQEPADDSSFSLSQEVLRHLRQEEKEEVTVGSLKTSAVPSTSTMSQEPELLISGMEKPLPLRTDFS

This test concerns the target human STING WT (6His-tagged STING protein) (Homo sapiens (Human), UniProt Q86WV6). Kind of test: HTRF binding assay (STING binding assay). To be noted: inhibition of d2-labeled 2',3'-cGAMP binding to 6His-tagged STING. The method, then:
Example 202 HTRF Binding Assay
Asymmetric bis-benzimidazole compounds (BBI) of the invention were assessed in a biochemical homogeneous time resolved fluorescence (HTRF) binding assay adapted from the human STING WT binding assay (“HTRF, A guide to Homogeneous Time Resolved Fluorescence”, (2021) PerkinElmer Cisbio; Mathis, G. Clinical Chemistry, 41(9):1391-1397). Briefly, 6His-tagged STING protein was incubated with terbium cryptate-labeled anti-6His antibody, d2-labeled 2′,3′-cGAMP, and varying concentrations of test articles in a 384-well plate format. Donor and acceptor emission signals were measured for each well by plate reader at […], respectively, and the ratio of the signals used to calculate percent inhibition of d2-labeled 2′,3′-cGAMP, cyclic dinucleotide binding.
What is called IC50 is the midpoint of a concentration-inhibition curve. Compound `CCn1nc(C)cc1C(=O)Nc1nc2cc(C(N)=O)cc(OCCCn3c(NC(=O)c4cc(C)nn4CC)nc4cc(C(N)=O)cc(OC)c43)c2n1C` [BBI-1, 1-(3-((5-carbamoyl-2-(1-ethyl-3-methyl-1H-pyrazole-5-carboxamido)-1-methyl-1H-benzo[d]imidazol-7-yl)oxy)propyl)-2-(1-ethyl-3-methyl-1H-pyrazole-5-carboxamido)-7-methoxy-1H-benzo[d]imidazole-5-carboxamide] gave an IC50 of 57 nM.

With `CCn1nc(C)cc1C(=O)Nc1nc2cc(C(N)=O)cc(OCCCCn3c(NC(=O)c4cc(C)nn4CC)nc4cc(C(N)=O)cc(OC)c43)c2n1C` [BBI-2, 1-[4-[6-carbamoyl-2-[(2-ethyl-5-methyl-pyrazole-3-carbonyl)amino]-3-methyl-benzimidazol-4-yl]oxybutyl]-2-[(2-ethyl-5-methyl-pyrazole-3-carbonyl)amino]-7-methoxy-benzimidazole-5-carboxamide], the IC50 stood at 73 nM.

Regarding `CCn1nc(C)cc1C(=O)Nc1nc2cc(C(N)=O)cc(OCCCCn3c(NC(=O)c4cc(C)nn4CC)nc4cc(C(N)=O)cc(OCCCN5CCNCC5)c43)c2n1C` [BBI-3, 1-(4-((5-carbamoyl-2-(1-ethyl-3-methyl-1H-pyrazole-5-carboxamido)-1-methyl-1H-benzo[d]imidazol-7-yl)oxy)butyl)-2-(1-ethyl-3-methyl-1H-pyrazole-5-carboxamido)-7-(3-(piperazin-1-yl)propoxy)-1H-benzo[d]imidazole-5-carboxamide], the IC50 was determined as 250 nM.

As for `CCn1nc(C)cc1C(=O)Nc1nc2cc(C(N)=O)cc(OCCCn3c(NC(=O)c4cc(C)nn4CC)nc4cc(C(N)=O)ccc43)c2n1C` [BBI-4], the IC50 turned out to be 440 nM.

As for `CCn1nc(C)cc1C(=O)Nc1nc2cc(C(N)=O)cc(OCCn3c(NC(=O)c4cc(C)nn4CC)nc4cc(C(N)=O)cc(OC)c43)c2n1C` [BBI-5], the IC50 turned out to be 210 nM.

`CCn1nc(C)cc1C(=O)Nc1nc2cc(C(N)=O)cc(OCCCn3c(NC(=O)c4cc(C)nn4CC)nc4cc(C(N)=O)cc(OCCCN5CCNCC5)c43)c2n1C` [BBI-6] showed an IC50 of 51 nM.

`CCn1nc(C)cc1C(=O)Nc1nc2cc(C(N)=O)cc(OC/C=C/Cn3c(NC(=O)c4cc(C)nn4CC)nc4cc(C(N)=O)cc(OCCCN5CCNCC5)c43)c2n1C` [BBI-7] gave an IC50 of 150 nM.

The values are drawn from patent publication US20240417486A1, “ASYMMETRIC BIS-BENZIMIDAZOLE STING AGONIST IMMUNOCONJUGATES AND USES THEREOF” (BOLT BIOTHERAPEUTICS, INC., priority 2021, published 2024).
